# Assays:
# HIV = conditions: HIV-infected patients; in combination with nucleoside reverse transcriptase inhibitors; cited from earlier work
# [1] = test system: HIV-1 viral constructs Q60, K-60, and V-18 in MT-4 T-lymphoid cells; assay type: cell-based; conditions: concentration reducing spread of infection by at least 95%; MT-4 cells, 4 days postinfection
# Experimental: Inhibition of the spread of HIV in cell culture was measured according to Nunberg et al., J. Virol. […] In this assay, MT-4 T-lymphoid cells were infected with HIV-1 (wild-type, unless otherwise indicated) by using a predetermined inoculum, and cultures were incubated for 24 h. At this time, ≦1% of the cells were positive by indirect immunofluorescence. Cells were then extensively washed and distributed into 96-well culture dishes. Serial twofold dilutions of inhibitor were added to the wells, and cultures were continued for 3 additional days. At 4 days postinfection, 100% of the cells in control cultures were infected. HIV-1 p24 accumulation was directly correlated with virus spread. The cell culture inhibitory concentration was defined as the inhibitor concentration in nanomoles/liter which reduced the spread of infection by at least 95%, or CIC95.
smiles,measurement,setting,value
CC(C)(C)NC(=O)[C@@H]1CN(Cc2cccnc2)CCN1C[C@@H](O)C[C@@H](Cc1ccccc1)C(=O)N[C@H]1c2ccccc2C[C@H]1O [indinavir],reducing HIV viral loads and increasing CD4 cell counts,HIV,highly effective
same,"CIC95 against the viral constructs Q60, K-60, and V-18",[1],greater than 1000 nM

# From patent US6642237B1, “Gamma-hydroxy-2-(fluoroalkylaminocarbonyl)-1-piperazinepentanamides and uses thereof” (Merck & Co., Inc., priority 1999, dated 2003)
